# Results: US20230381349A1, “METHODS AND COMPOSITIONS FOR IMAGING AND TREATING CANCER” (WASHINGTON UNIVERSITY, priority 2020, published 2023)
# pIC50: −log10 of the molar value.
# Experiments:
# [1] = system: KI tumor; assay: Treatment efficacy in KI xenograft model; type: in vivo, mouse; settings: for median survival: KI mice
# Method: A KI xenograft model was used to monitor tumor growth trends and treatment efficacy of CuNPs-ECL1i-Gem. 10 days after tumor implantation, mice were randomized into 5 groups (n=5/group): (1) CuNPs-ECL1i-Gem (Cu mass: 10 mg/kg body weight, Gem: 3.4±0.8 mg/kg body weight, I.V. injection, twice per week); (2) CuNPs-ECL1i (same CuNPs-NT dose as (1), I.V. injection, twice per week); (3) gemcitabine 7 mg/kg body weight (I.V. injection, twice per week); (4) gemcitabine 100 mg/kg body weight (I. P. injection, once per week); (5) saline (100 μL, I.V. injection, twice per week). For the 2nd treatment study, the mice started dose administration at 7 days post implantation. The dose regimens of CuNPs-NT-Gem and CuNPs-ECL1i-Gem were the same as the 1st treatment study. The Cu mass was limited to a dosage of 10 mg/kg for all nanoparticle groups, and the relative loaded gemcitabine dose was 3.4±0.8 mg/kg body weight. […] Tumor volume was calculated as (length×width2)/2. The treatment was continued for 6 successive weeks or until the mice died or were sacrificed and deemed as dead when their tumor volume reached over 2000 mm^3. After treatment, the tumors were collected for H&E staining.
# [2] = system: KI cells; assay: In vitro cytotoxicity (WST-1 cell viability) assay; type: cell-based; settings: Mus musculus, 72 h, 3 days continuous drug treatment
# Method: All cells were cultured at 37° C., 5% C02, and 95% humidity.
# The KI Cells were seeded into 96-well plates at a density of 5000 cells per well. 24 hrs later, the medium was replaced by fresh medium containing TA-PEG-Gem and Gem at the indicated concentration (range, 0-500 μM), respectively. All experimental incubation conditions were performed at least in triplicate. Cell viability was determined after 3 days of continuous drug treatment using the WST-1 cell cytotoxicity assay (Roche, Basel, Switzerland) following the manufacturer's instruction. Briefly, 10 μl WST-1 reagent was added in each well followed by additional incubation for 4 h. The absorbance at 440 nm was measured using a microplate reader. IC50 was calculated using GraphPad Prism 7.03 software (GraphPad Software, San Diego, CA).
smiles,measurement,setting,value
"Nc1ccn([C@@H]2O[C@H](CO)[C@@H](O)C2(F)F)c(=O)n1 [Gem, gemcitabine]",median survival,"[1]; start day 10, high dose 100 mg/kg I.P. once per week",26 days
same,median survival,"[1]; start day 10, low dose 7 mg/kg I.V. twice per week",25 days
same,tumor growth effect compared to saline,"[1]; start day 10, high dose 100 mg/kg I.P.",did not show any treatment benefit
same,tumor growth effect compared to saline,"[1]; start day 10, low dose 7 mg/kg I.V.",did not show any treatment benefit
same,pIC50,[2],4.71
